Measurements from the NIST ThermoML archive (doi:10.1007/s10765-009-0667-2).

Experiment: xn = mol fraction of the nth substance listed
Settings: 101 kPa, Liquid; for mass density: Vibrating tube method

CCCCCCC [heptane] + Cc1ccccc1
x1 = 1
Settings	mass density [kg/m3]	viscosity [mPa·s]
308.15 K	671.3	0.3497
313.15 K	667.1	0.3329

CCCCCCC [heptane] + c1ccccc1
x2 = 0
Settings	mass density [kg/m3]	viscosity [mPa·s]
308.15 K	671.3	0.3497
313.15 K	667.1	0.3329

CCc1ccccc1 [ethylbenzene] + Cc1ccccc1
Settings	mass density, 308.15 K [kg/m3]	mass density, 318.15 K [kg/m3]	viscosity, 308.15 K [mPa·s]	viscosity, 313.15 K [mPa·s]
x2 = 0	853.7	849.5	0.5652	0.5294
x2 = 0.0424	853.7	849.5	0.5587	0.5306
x2 = 0.128	853.7	849.4	0.5587	0.525
x2 = 0.2164	853.6	849.3	0.5471	0.5185
x2 = 0.2928	853.6	849.3	0.5408	0.5124
x2 = 0.393	853.5	849.2	0.5379	0.5186
x2 = 0.4922	853.4	849.1	0.5349	0.5022
x2 = 0.5716	853.4	849	0.5243	0.4968
x2 = 0.7107	853.2	848.8	0.5125	0.4853
x2 = 0.8425	853	848.6	0.5108	0.4781

CCc1ccccc1 [ethylbenzene] + CCCCCCC
Settings	mass density, 308.15 K [kg/m3]	mass density, 313.15 K [kg/m3]	viscosity, 308.15 K [mPa·s]	viscosity, 313.15 K [mPa·s]
x2 = 0	853.7	849.5	0.5652	0.5294
x2 = 0.1034	831.5	827.4	0.5217	0.4945
x2 = 0.2048	810.6	806.5	0.4925	0.4631
x2 = 0.2931	793	788.8	0.4625	0.4393
x2 = 0.3754	777.2	773	0.44	0.419
x2 = 0.488	756.3	752.2	0.4195	0.3986
x2 = 0.5929	737.7	733.6	0.4061	0.3807
x2 = 0.6899	720.9	716.7	0.3859	0.3669
x2 = 0.8051	701.8	697.7	0.369	0.3516
x2 = 0.8979	687.1	683	0.3659	0.3425

Cc1ccccc1 [toluene] + CCc1ccccc1
x1 = 1
Settings	mass density [kg/m3]	viscosity [mPa·s]
308.15 K	852.8	0.494
313.15 K	–	0.4755
318.15 K	848.3	–

C1CCCCCCC1 [cyclooctane] + c1ccccc1
Settings	mass density, 308.15 K [kg/m3]	mass density, 313.15 K [kg/m3]	viscosity, 308.15 K [mPa·s]	viscosity, 313.15 K [mPa·s]
x2 = 0	823.6	819.7	1.803	1.636
x2 = 0.1004	824.9	821	1.494	1.368
x2 = 0.1826	826.4	822.4	1.294	1.193
x2 = 0.3035	829	824.9	1.072	0.993
x2 = 0.408	831.9	827.6	0.9222	0.859
x2 = 0.5122	835.2	830.9	0.8085	0.7548
x2 = 0.5243	835.7	831.4	0.7963	0.7437
x2 = 0.6891	842.7	838.1	0.6667	0.6274
x2 = 0.7904	848.1	843.3	0.6042	0.5677
x2 = 0.9001	855.1	850.1	0.5651	0.5263

C1CCCCCCC1 [cyclooctane] + Cc1ccccc1
Settings	mass density, 308.15 K [kg/m3]	mass density, 313.15 K [kg/m3]	viscosity, 308.15 K [mPa·s]	viscosity, 313.15 K [mPa·s]
x2 = 0	823.6	819.7	1.803	1.636
x2 = 0.0997	824.6	820.7	1.443	1.326
x2 = 0.1951	826	822.1	1.198	1.112
x2 = 0.3032	828.1	824.1	1.003	0.9333
x2 = 0.3904	830	826	0.8748	0.8203
x2 = 0.4868	832.5	828.5	0.7834	0.701
x2 = 0.5898	835.6	831.4	0.6981	0.6579
x2 = 0.6919	839.2	834.9	0.6266	0.5912
x2 = 0.8003	843.4	839.1	0.5673	0.5364
x2 = 0.888	847.3	842.9	0.5361	0.5033
